Measurements reported in paper PMC10666548, “Identification of the bacterial metabolite aerugine as potential trigger of human dopaminergic neurodegeneration” (Environment international, 2023).
“Also recorded” adds a separate entry of the source.

Assays:
[1] = Cytotoxicity to immature (d2) LUHMES cells, calcein-AM & H-33342 imaging; type: cell-based; conditions: human, immature LUHMES d2, 24 h exposure, read-out: EC50 (half-maximal cytotoxic potency), cell viability
Experimental: The assays were performed as described previously ([Hoelting et al., 2016]; [Klima et al., 2021]; [Krug et al., 2013]). In brief, 30′000 cells per well were seeded on d2 (LUHMES) / d0 (peripheral neurons, Cortex.4U, CNS.4U) in their respective differentiation media into standard pre-coated 96-well plates. They were incubated for 1 h at 37 °C and 5% CO2 before treatment. 24 h after treatment the Calcein/Hoechst readout was performed.
Neurite area (NA) and viability (V) were assessed as described previously ([Stiegler et al., 2011]). In brief, cells were stained with 1 μM calcein-AM and 1 μg/ml H-33342 for 30 min at 37 °C and 5% CO2. Image acquisition was performed using an Array-Scan VTI HCS Reader (Cellomics, PA, USA) equipped with a Hamamatsu ORCA-ER camera. 10 fields per well were imaged with 2 channels at 20x magnification (2×2 pixel binning). […]
Nuclei were identified in channel 1 depending on intensity, area, size and shape. […] The NA was automatically calculated by excluding the VCSAs from the VCSs. […]
Fig. 3. […] The cell viability was assessed 24 h later by calcein-AM & H-33342 staining and high content imaging. […] The overall cell viability was assessed by measuring resazurin reduction in technical triplicates. […] The cell viability was assessed 24 h later by calcein-AM & H-33342 staining and high content imaging. […]

[2] = tested on: peripheral nervous system cells (iPSC-derived peripheral neurons); experiment: iPSC-derived neuron viability, calcein-AM & H-33342 imaging; type: cell-based, human; conditions: 24 h, concentrations up to 100 μM
Experimental: The human iPSC (Sigma iPSC0028 (EPITHELIAL-1, #IPSC0028) were maintained and differentiated towards immature dorsal root ganglia neurons according to [Hoelting et al. (2016)] ([Hoelting et al., 2016]). Briefly, a total of 90,000 cells/cm^2 were seeded on Matrigel. The differentiation was initiated with neural differentiation medium (KSR-S; Dulbecco’s modified Eagle’s medium [DMEM/F12] containing 15% knockout serum replacement, 1 × Glutamax, 1 × nonessential amino acids, and 50 μM ß-mercaptoethanol) supplemented with 17.5 ng/ml noggin, 10 μM SB-431642 from day of stem cell differentiation (DoD) DoD0 to DoD5. Starting on DoD2 CHIR99021 (1.5 μM), SU5402 (5 μM) and DAPT (5 μM) were added. […]
The assays were performed as described previously ([Hoelting et al., 2016]; [Klima et al., 2021]; [Krug et al., 2013]). […] 24 h after treatment the Calcein/Hoechst readout was performed.
Neurite area (NA) and viability (V) were assessed as described previously ([Stiegler et al., 2011]). […] Image acquisition was performed using an Array-Scan VTI HCS Reader (Cellomics, PA, USA) equipped with a Hamamatsu ORCA-ER camera. […]

[3] = tested on: dopaminergic system of C. elegans BY200; experiment: Basal slowing response (BSR) behavioral assay; type: in vivo, Caenorhabditis elegans; conditions: L4 BY200 worms treated 2 days
Experimental: The basal slowing response (BSR) is a behavioral assay that assesses the functionality of the worms’ DAergic system. For this, worms were washed three times with S-basal buffer (100 mM NaCl, 5 mg/L cholesterol, 50 mM potassium phosphate buffer, pH 6.0) to remove residual bacteria, and placed on the center of a 60-mm NGM plates in the absence or presence of an OP50 bacteria ring. After habituation (5 min), the number of body bends of each worm was counted during 20 s to determine its immobility rate. The results were expressed as the difference (Δ) between the number of body bends in the absence (a) and presence (p) of bacteria on fresh plates (Δ = a-p). […]
Fig. 5. […] They were exposed to different aerugine concentrations and counted every 24 h. […] Differences on a given day were analyzed by ANOVA and found to be non-significant. […] The GFP-labelled neurons of 20–30 worms per condition were analyzed and scored for specific neurodegeneration. […] These scores were assessed to quantify the dopaminergic neurodegeneration caused be aerugine in vivo. C Worms with wild type morphology (score 0) were counted. […] D The degeneration scores exemplified in B were quantified. […] E The “basal slowing response” was assessed as proxy for the functionality of the worms’ dopaminergic system. It was measured in L4 larval stage BY200 worms treated for 2 days with aerugine. […]

For `OCC1CSC(c2ccccc2O)=N1` (stereo not drawn) [aerugine, 2-[4-(hydroxymethyl)-4,5-dihydro-1,3-thiazol-2-yl]phenol], the EC50 at 24 h [1] was 9.3 ± 1.1 µM, the “effect on cell viability” value [2] was “no effect” and the “basal slowing response (BSR)” value [3] was “attenuated; also recorded: exerted functional dopaminergic toxicity”.
